According to ChEMBL document CHEMBL1201862, “PubChem BioAssay data set” (2004):
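Protocol summary: plate cells (96-well), add compound at 5 concentrations, incubate 48 h, interpolate endpoints linearly. Abbreviation: GI50, concentration required for 50% inhibition of growth.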 Calls of active or inactive are those of the source. Cut-off read from the data, not from the text of the source: active = GI50 up to about 1.1 µM and inactive = higher.

Assays:
Assay in all cases: NCI tumour cell line growth inhibition, 48 h
HL-60 = system: HL-60
HCT-15 = system: HCT-15
TK-10 = system: TK-10
SR = system: SR
NCI/ADR-RES = system: NCI/ADR-RES
BT-549 = system: BT-549
HCC 2998 = system: HCC 2998
ACHN = system: ACHN
LOX IMVI = system: LOX IMVI
SF-268 = system: SF-268
HT-29 = system: HT-29
U-251 = system: U-251
MOLT-4 = system: MOLT-4
MCF7 = system: MCF7
MDA-N = system: MDA-N
PC-3 = system: PC-3
SK-MEL-2 = system: SK-MEL-2
UO-31 = system: UO-31
M14 = system: M14
DLD-1 = system: DLD-1

| SMILES | GI50 (HL-60) | GI50 (HCT-15) [µM] | GI50 (TK-10) | GI50 (SR) | GI50 (NCI/ADR-RES) | GI50 (BT-549) | GI50 (HCC 2998) | GI50 (ACHN) | GI50 (LOX IMVI) | GI50 (SF-268) | GI50 (HT-29) | GI50 (U-251) | GI50 (MOLT-4) | GI50 (MCF7) | GI50 (MDA-N) | GI50 (PC-3) | GI50 (SK-MEL-2) | GI50 (UO-31) | GI50 (M14) | GI50 (DLD-1) |
| --- | --- | --- | --- | --- | --- | --- | --- | --- | --- | --- | --- | --- | --- | --- | --- | --- | --- | --- | --- | --- |
| O=C(c1ccccc1)n1c(Cc2ccccc2)nc2cc(C34CC5CC(CC(C5)C3)C4)ccc21 | 33.7 µM (inactive) | 18.2 | > 100 µM (inactive) | 39.6 µM (inactive) | 31.8 µM (inactive) | 46.5 µM (inactive) | 77.3 µM (inactive) | 34.8 µM (inactive) | 30.5 µM (inactive) | > 100 µM (inactive) | 43.6 µM (inactive) | 44.6 µM (inactive) | 35.9 µM (inactive) | 24.4 µM (inactive) | 47 µM (inactive) | 49 µM (inactive) | 31.9 µM (inactive) | 35.2 µM (inactive) | 43.4 µM (inactive) |  |
| NNc1nc2ccccc2s1 | > 100 µM (inactive) | > 100 | > 100 µM (inactive) | 53.2 µM (inactive) | > 100 µM (inactive) | > 100 µM (inactive) | > 100 µM (inactive) | > 100 µM (inactive) | > 100 µM (inactive) | > 100 µM (inactive) | > 100 µM (inactive) | > 100 µM (inactive) | 37.3 µM (inactive) | > 100 µM (inactive) | > 100 µM (inactive) | > 100 µM (inactive) | > 100 µM (inactive) | > 100 µM (inactive) | > 100 µM (inactive) |  |
| CCN(CC)C(=O)Cn1c(-c2ccccc2)cc2ccccc21 | 47.4 µM (inactive) | 43.3 | 34.9 µM (inactive) | 32.5 µM (inactive) | 23.4 µM (inactive) | 33 µM (inactive) | 78.7 µM (inactive) | 30.9 µM (inactive) | 25.4 µM (inactive) | 29 µM (inactive) | 29 µM (inactive) | 40.1 µM (inactive) | 14.5 µM (inactive) | 33.5 µM (inactive) | 28.1 µM (inactive) | 22.9 µM (inactive) | 72.8 µM (inactive) | 17.5 µM (inactive) | 87.3 µM (inactive) |  |
| CC/C(Cl)=N\OC(=O)Nc1ccc(OC)c(C)c1 | 3.5 µM (inactive) | 6.34 | 20.6 µM (inactive) | 3.04 µM (inactive) | 15 µM (inactive) | 12.9 µM (inactive) | 19.6 µM (inactive) | 8.93 µM (inactive) | 10.9 µM (inactive) | 29.2 µM (inactive) | 17.4 µM (inactive) | 45.3 µM (inactive) | 5.74 µM (inactive) | 16.7 µM (inactive) | 18.7 µM (inactive) | 28.8 µM (inactive) | 19 µM (inactive) | 15.3 µM (inactive) | 17.9 µM (inactive) |  |
| CC(C)(C)N(Cc1ccccc1)C(=O)/C=C\[S+]([O-])c1ccccc1 (configuration not stated) | 2.1 µM (inactive) | 3.75 | 6.75 µM (inactive) | 1.58 µM (inactive) | 2.55 µM (inactive) | 2.94 µM (inactive) | 6.28 µM (inactive) | 4.71 µM (inactive) | 1.73 µM (inactive) | 2.07 µM (inactive) | 4.11 µM (inactive) | 3.88 µM (inactive) | 2.03 µM (inactive) | 2.92 µM (inactive) | 2.16 µM (inactive) | 3.56 µM (inactive) | 2.8 µM (inactive) | 2.34 µM (inactive) | 2.51 µM (inactive) |  |
| CC(C)(C)OC(=O)CN1C(=O)CC1CC(=O)c1ccccc1 (configuration not stated) | 20 µM (inactive) | 18.2 | 30.2 µM (inactive) | 2.89 µM (inactive) | 35.1 µM (inactive) | 18.2 µM (inactive) | 23.5 µM (inactive) | 21.2 µM (inactive) | 16.9 µM (inactive) | 17.9 µM (inactive) | 17.2 µM (inactive) | 16 µM (inactive) | 4.39 µM (inactive) | 12.4 µM (inactive) | 20.3 µM (inactive) | 17.2 µM (inactive) | 16.8 µM (inactive) | 17.2 µM (inactive) | 16.3 µM (inactive) |  |
| O=C(O)c1cc(N(Cc2ccccc2O)Cc2cc(O)ccc2O)ccc1O [LAVENDUSTIN A] | > 100 µM (inactive) | > 100 | > 100 µM (inactive) | 82.8 µM (inactive) | > 100 µM (inactive) | 6.21 µM (inactive) | > 100 µM (inactive) | > 100 µM (inactive) | 34.9 µM (inactive) | > 100 µM (inactive) | > 100 µM (inactive) | > 100 µM (inactive) | > 100 µM (inactive) | > 100 µM (inactive) | > 100 µM (inactive) | 42.3 µM (inactive) | > 100 µM (inactive) | > 100 µM (inactive) | > 100 µM (inactive) |  |
| COC(=O)C1Cc2c(n(C)c3ccccc23)C(CCC(=O)O)N1Cc1ccccc1 (configuration not stated) | 34.4 µM (inactive) | 27.7 | 55.8 µM (inactive) |  |  |  | > 100 µM (inactive) | 19.6 µM (inactive) | 37.8 µM (inactive) | 26.4 µM (inactive) | 36.1 µM (inactive) | 37.7 µM (inactive) | 27.5 µM (inactive) |  |  |  | > 100 µM (inactive) | 21.2 µM (inactive) | 25.5 µM (inactive) | > 100 µM (inactive) |
